Patent US20200392158A1, “INHIBITORS OF LEUCINE RICH REPEAT KINASE 2” (GLAXOSMITHKLINE INTELLECTUAL PROPERTY DEVELOPMENT LIMITED, priority 2017, published 2020)

Target: T1, full length G2019 human LRRK2 (Homo sapiens, UniProt Q5S007, R50H)
T1 construct: made in house; host or cells: HEK293 6E cells transduced with BacMam virus (virus generated in Sf9 cells)
Test: Full length G2019 human LRRK2 inhibition mass spectrometry assay
Type: biochemical
Conditions: LRRKtide to phospho-LRRKtide conversion, RapidFire MS, 2 mM ATP
Description: a. Full Length G2019 Human LRRK2 Inhibition Mass Spectrometry Assay
This assay for Leucine Rich Repeat Kinase 2 (LRRK2) inhibition is based on the direct measurement of the peptide ‘LRRKtide’ (LRRKtide: RLGRDKYKT*LRQIRQ and “*” refers to the site of phosphorylation.) and phosphorylated ‘LRRKtide’ using a high throughput Rapid Fire mass spectrometry assay. Inhibitors are compounds that reduce the conversion of LRRKtide to phospho-LRRKtide.
• 1) Compounds were dissolved in 100% DMSO at a concentration of 10 mM, and 11-point dose response curves generated using a 1 in 4 serial dilution in DMSO. 100 nL of this dilution series was then added to a 384 well, v bottom polypropylene plate (Greiner 781280), excluding columns 6 and 18. 100 nL of DMSO were added to column 6 to serve as the high control, while column 18 served as the low control containing assay buffer in place of the LRRK2 protein. Assay dilution gave a top final assay concentration of test compound of […] • 2) 5 μL of ‘enzyme solution’ containing 2× final assay concentration of purified recombinant Full length Flag-LRRK2 in assay buffer (50 mM Hepes, pH 7.2, 10 mM MgCl2, 150 mM NaCl, 5% glycerol, 0.0025% Triton X-100 and 1 mM DTT) were added to all wells using a Multidrop Combi dispenser (ThermoFisher Scientifiec), giving a final assay concentration of 25 nM LRRK2 enzyme (final concentration may vary depending on specific activity of different enzyme batches). • 3) 5 μL of substrate solution containing 50 μM LRRKtide peptide substrate and […] was added to all wells of the plate using a Multidrop Combi dispenser giving a final assay concentration of 25 μM LRRKtide peptide and 2 mM ATP. Test plates were then incubated for 1 hour at room temperature. (Incubation may vary depending on rate and linearity of reaction with different enzyme batches). • 4) 50 μl of 1% formic acid in laboratory grade water was added to all wells to quench the reaction, and plates were heat-sealed prior to centrifugation at 1348×g for 10 minutes. Test plates were then analysed on an Agilent RapidFire High Throughput solid phase extraction system coupled to AB Sciex API 4000 triple quadropole mass spectrometer with the following setting:
• Sip Height=2 mm, Aspirate=500 ms, Load time=3000 ms, Elution time=3000 ms, Requilibration=500 ms. • Flow rates: pump 1=1.5 mL/min, pump 2 1.25 mL/min pump 3=0.8 mL/min
Mass Spectrometer Settings: • LRRKtide Detection settings: Q1 mass 644.8 Da, Q3 mass 638.8, declustering potential 76 volts, collision energy 37 volts, CXP 34 volts. • Phospho-LRRKtide Detection settings: Q1 mass 671.4 Da, Q3 mass 638.8, Declustering potential 76 volts, Collision energy 37 volts, CXP 34 volts. • A C4 cartridge was used and running buffers were: A (aqueous) 0.1% formic acid in water B (organic) 0.1% formic acid, 80% acetonitrile, 20% water. • Collision gas: 12, Curtain gas: 25, Ion Source gas (1): 60, Ion Source gas (2): 60, Ion Spray Voltage: 5500, Temperature: 600, Interface Heater: ON. • Resolution Q1: low, Resolution Q3: low. • 5) Data were analysed using ActivityBase software (IDBS). A percent conversion from LRRKtide to Phospho-LRRKtide was calculated using the following formula:
% conversion=(Phospho-LRRKtide product peak area/(Phospho-LRRKtide product peak area+LRRKtide substrate peak area))*100 • A logistic 4 parameter curve fit was applied, using the following formula,
[formula] • Where x is the concentration of test sample, y is inhibition (%), a is the minimum, b is the Hill slope, c is the IC50 and d is the maximum. From this, the pIC50 was derived (−log IC50).

T1 sequence (Q5S007 with tags, fused parts or gaps R50H): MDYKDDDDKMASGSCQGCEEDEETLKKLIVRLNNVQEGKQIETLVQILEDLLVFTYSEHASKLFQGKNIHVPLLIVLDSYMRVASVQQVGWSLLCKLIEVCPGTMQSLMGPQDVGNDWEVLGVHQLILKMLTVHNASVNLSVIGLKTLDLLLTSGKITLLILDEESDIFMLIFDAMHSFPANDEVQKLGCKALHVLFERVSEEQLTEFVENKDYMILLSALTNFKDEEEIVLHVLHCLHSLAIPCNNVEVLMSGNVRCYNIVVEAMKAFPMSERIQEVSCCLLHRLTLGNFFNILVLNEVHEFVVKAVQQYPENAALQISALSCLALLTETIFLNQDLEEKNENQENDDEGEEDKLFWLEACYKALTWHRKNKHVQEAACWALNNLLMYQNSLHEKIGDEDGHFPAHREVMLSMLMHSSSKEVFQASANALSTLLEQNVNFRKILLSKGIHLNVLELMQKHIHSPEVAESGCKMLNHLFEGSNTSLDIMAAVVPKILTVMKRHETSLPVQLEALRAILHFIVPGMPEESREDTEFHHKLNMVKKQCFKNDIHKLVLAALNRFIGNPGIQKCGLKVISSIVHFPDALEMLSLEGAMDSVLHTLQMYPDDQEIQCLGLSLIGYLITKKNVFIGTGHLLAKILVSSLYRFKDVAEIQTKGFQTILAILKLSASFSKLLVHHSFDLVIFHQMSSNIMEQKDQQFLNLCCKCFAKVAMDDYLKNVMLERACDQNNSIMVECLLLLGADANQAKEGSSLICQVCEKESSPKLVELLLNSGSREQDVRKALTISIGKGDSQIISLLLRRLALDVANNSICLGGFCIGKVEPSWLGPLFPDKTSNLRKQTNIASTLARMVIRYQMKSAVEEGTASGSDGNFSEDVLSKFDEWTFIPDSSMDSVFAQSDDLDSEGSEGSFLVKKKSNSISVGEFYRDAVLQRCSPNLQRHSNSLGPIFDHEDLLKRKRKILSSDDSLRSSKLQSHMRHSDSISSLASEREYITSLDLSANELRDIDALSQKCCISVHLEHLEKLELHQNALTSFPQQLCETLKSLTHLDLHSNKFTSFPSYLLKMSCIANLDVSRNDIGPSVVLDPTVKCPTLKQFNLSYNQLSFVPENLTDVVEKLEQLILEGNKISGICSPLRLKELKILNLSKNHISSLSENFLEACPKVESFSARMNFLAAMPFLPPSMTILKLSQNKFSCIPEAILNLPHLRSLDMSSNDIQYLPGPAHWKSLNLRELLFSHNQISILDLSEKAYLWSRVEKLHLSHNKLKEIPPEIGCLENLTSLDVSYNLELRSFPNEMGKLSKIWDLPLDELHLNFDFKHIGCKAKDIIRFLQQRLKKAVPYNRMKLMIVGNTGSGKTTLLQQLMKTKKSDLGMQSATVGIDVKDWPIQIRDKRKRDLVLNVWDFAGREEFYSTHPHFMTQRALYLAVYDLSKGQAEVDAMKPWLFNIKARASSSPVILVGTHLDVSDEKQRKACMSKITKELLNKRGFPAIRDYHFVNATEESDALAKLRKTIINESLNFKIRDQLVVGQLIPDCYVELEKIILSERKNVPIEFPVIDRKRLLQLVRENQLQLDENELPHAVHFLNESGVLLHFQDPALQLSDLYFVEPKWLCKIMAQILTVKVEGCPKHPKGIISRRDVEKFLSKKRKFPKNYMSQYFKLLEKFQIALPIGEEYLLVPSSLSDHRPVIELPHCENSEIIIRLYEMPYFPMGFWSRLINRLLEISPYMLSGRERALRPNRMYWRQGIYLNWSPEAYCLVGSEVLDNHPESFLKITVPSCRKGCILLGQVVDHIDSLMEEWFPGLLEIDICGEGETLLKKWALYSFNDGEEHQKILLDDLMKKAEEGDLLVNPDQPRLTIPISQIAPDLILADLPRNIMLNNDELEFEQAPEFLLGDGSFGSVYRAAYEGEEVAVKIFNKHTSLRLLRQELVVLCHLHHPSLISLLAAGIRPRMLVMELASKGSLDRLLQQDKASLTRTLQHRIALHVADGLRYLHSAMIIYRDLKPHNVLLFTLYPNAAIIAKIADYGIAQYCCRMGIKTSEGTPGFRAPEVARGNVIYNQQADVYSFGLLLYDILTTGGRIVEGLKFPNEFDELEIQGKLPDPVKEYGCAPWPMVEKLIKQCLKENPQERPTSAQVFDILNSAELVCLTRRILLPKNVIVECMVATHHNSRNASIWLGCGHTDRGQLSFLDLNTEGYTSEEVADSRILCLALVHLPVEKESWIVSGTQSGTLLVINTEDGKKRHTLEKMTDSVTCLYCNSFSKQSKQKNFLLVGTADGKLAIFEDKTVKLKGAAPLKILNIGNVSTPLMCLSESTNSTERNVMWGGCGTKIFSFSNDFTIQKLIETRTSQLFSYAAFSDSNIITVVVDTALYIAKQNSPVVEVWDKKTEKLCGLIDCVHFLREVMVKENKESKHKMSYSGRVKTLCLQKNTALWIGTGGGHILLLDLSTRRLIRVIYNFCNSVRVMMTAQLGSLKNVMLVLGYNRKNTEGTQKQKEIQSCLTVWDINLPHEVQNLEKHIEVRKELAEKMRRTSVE

SMILES | IC50 [µM]
Cc1c2c(nn1C1CCCOC1)OCCCNc1nc(ncc1Cl)N2 (single isomer, unassigned) [E11, 14-Chloro-4-methyl-5-(oxan-3-yl)-8-oxa-2,5,6,12,16,17-hexaaza tricyclo-[11.3.1.0^3,7]heptadeca-1(16),3,6,13(17),14-pentaene] | ≤ 0.1
CCC1CCOc2nn(C3CCOCC3)c(C)c2Nc2ncc(Cl)c(n2)N1 (single isomer, unassigned) [E19, 14-chloro-11-ethyl-4-methyl-5-(oxan-4-yl)-8-oxa-2,5,6,12,16,17-hexaazatricyclo[11.3.1.0^3,7]heptadeca-1(16),3,6,13(17),14-pentaene] | ≤ 10
Cc1c2c(nn1C1CCOCC1F)OCCC(C)Nc1nc(ncc1Cl)N2 (single isomer, unassigned) [E26, 14-chloro-5-(3-fluorooxan-4-yl)-4,11-dimethyl-8-oxa-2,5,6,12,16,17-hexaazatricyclo [11.3.1.0^3,7]heptadeca-1(17),3,6,13,15-pentaene] | ≤ 10
Cc1c2c(nn1C1CCOCC1F)OCCC(C)Nc1nc(ncc1Cl)N2 (single isomer, unassigned) [E28, 14-chloro-5-(3-fluorooxan-4-yl)-4,11-dimethyl-8-oxa-2,5,6,12,16,17-hexaazatricyclo [11.3.1.0^3,7]heptadeca-1(17),3,6,13,15-pentaene] | ≤ 0.1
Cc1c2c(nn1C1CCOCC1)OCCC(C)Nc1nc(ncc1Br)N2 (single isomer, unassigned) [E29, 14-bromo-4,11-dimethyl-5-(oxan-4-yl)-8-oxa-2,5,6,12,16,17-hexaaza tricyclo[11.3.1.0^3,7]heptadeca-1(16),3,6,13(17),14-pentaene] | ≤ 10
Cc1c2c(nn1C1CCOCC1)OCC(C)C(C)Nc1nc(ncc1Cl)N2 (single isomer, unassigned) [E31, 14-chloro-4,10,11-trimethyl-5-(oxan-4-yl)-8-oxa-2,5,6,12,16,17-hexaazatricyclo [11.3.1.0^3,7]heptadeca-1(16),3,6,13(17),14-pentaene] | ≤ 0.1
Cc1c2c(nn1C1CCOCC1)OCC(C)C(C)Nc1nc(ncc1Cl)N2 (single isomer, unassigned) [E33, 14-chloro-4,10,11-trimethyl-5-(oxan-4-yl)-8-oxa-2,5,6,12,16,17-hexaazatricyclo [11.3.1.0^3,7]heptadeca-1(16),3,6,13(17),14-pentaene] | ≤ 10
Cc1c2c(nn1C1CCOCC1)OCC(C)C(C)Nc1nc(ncc1Cl)N2 (single isomer, unassigned) [E34, 14-chloro-4,10,11-trimethyl-5-(oxan-4-yl)-8-oxa-2,5,6,12,16,17-hexaazatricyclo [11.3.1.0^3,7]heptadeca-1(16),3,6,13(17),14-pentaene] | ≤ 10
COCC1CCOc2nn(C3CCOCC3)c(C)c2Nc2ncc(Cl)c(n2)N1 (single isomer, unassigned) [E36, 14-chloro-11-(methoxymethyl)-4-methyl-5-(oxan-4-yl)-8-oxa-2,5,6, 12,16,17-hexaazatricyclo-[11.3.1.0^3,7]heptadeca-1(16),3,6,13(17),14-pentaene] | ≤ 0.1
Cc1c2c(nn1C(C)(C)C#N)OCCC(C)Nc1nc(ncc1Cl)N2 (single isomer, unassigned) [E43, 2-{14-chloro-4,11-dimethyl-8-oxa-2,5,6,12,16,17-hexaazatricyclo [11.3.1.0^3,7]heptadeca-1(16),3,6,13(17),14-pentaen-5-yl}-2-methylpropanenitrile] | ≤ 10
Cc1c2c(nn1C1CCC(N3C[C@H]4C[C@@H]3CO4)CC1)OCCCNc1nc(ncc1Cl)N2 (single isomer, unassigned) [E49] | ≤ 0.1

Now from value to compound:

IC50 [µM] | SMILES
≤ 0.1 | Cc1c2c(nn1C1CCC(N3C[C@@H]4C[C@H]3CO4)CC1)OCCCNc1nc(ncc1Cl)N2 (single isomer, unassigned) [E51]
≤ 10 | Cc1c2c(nn1C1CCOCC1)OCCC(CF)Nc1nc(ncc1Cl)N2 (single isomer, unassigned) [E53, 14-chloro-11-(fluoromethyl)-4-methyl-5-(oxan-4-yl)-8-oxa-2,5,6,12, 16,17-hexaazatricyclo[11.3.1.0^3,7]heptadeca-1(16),3,6,13(17),14-pentaene]
≤ 10 | Cc1c2c(nn1C1CCC(N3C[C@H]4C[C@@H]3CO4)CC1)OCCC(C)Nc1nc(ncc1Cl)N2 (single isomer, unassigned) [E56]
≤ 0.1 | Cc1c2c(nn1C1CCC(N3C[C@H]4C[C@@H]3CO4)CC1)OCCC(C)Nc1nc(ncc1Cl)N2 (single isomer, unassigned) [E58]
≤ 0.1 | COCCN1CCC(n2nc3c(c2C)Nc2ncc(Cl)c(n2)NCCCO3)C(F)C1 (single isomer, unassigned) [E60, trans-14-chloro-5-[3-fluoro-1-(2-methoxyethyl)piperidin-4-yl]-4-methyl-8-oxa-2,5,6,12,16,17-hexaazatricyclo[11.3.1.0^3,7]heptadeca 1(16),3,6,13(17),14-pentaene]
≤ 0.1 | Cc1c2c(nn1C1CCN(C3COC3)CC1F)OCCCNc1nc(ncc1Cl)N2 (single isomer, unassigned) [E62, trans-14-chloro-5-[3-fluoro-1-(oxetan-3-yl)piperidin-4-yl]-4-methyl-8-oxa-2,5,6,12,16,17-hexaazatricyclo[11.3.1.0^3,7]heptadeca-1(16),3,6,13(17),14-pentaene]
≤ 10 | Cc1c2c(nn1C1CCOCC1)OCC(F)C(C)Nc1nc(ncc1Cl)N2 (single isomer, unassigned) [E63, 14-Chloro-10-fluoro-4,11-dimethyl-5-(oxan-4-yl)-8-oxa-2,5,6,12, 16,17-hexaazatricyclo[11.3.1.0^3,7]heptadeca-1(16),3,6,13(17),14-pentaene]
≤ 0.1 | Cc1c2c(nn1C1CCCN(C3COC3)C1)OCC[C@@H](C)Nc1nc(ncc1Cl)N2 (single isomer, unassigned) [E68]
≤ 0.1 | Cc1c2c(nn1C1CCOC(C)C1)OCCC(C)Nc1nc(ncc1Cl)N2 (single isomer, unassigned) [E84, 14-chloro-4,11-dimethyl-5-(2-methyloxan-4-yl)-8-oxa-2,5,6,12, 16,17-hexaazatricyclo[11.3.1.0^3,7]heptadeca-1(16),3,6,13(17),14-pentaene]
≤ 10 | Cc1c2c(nn1C1CCOCC1)OCCC(C(F)F)Nc1nc(ncc1Cl)N2 (single isomer, unassigned) [E89, 14-chloro-11-(difluoromethyl)-4-methyl-5-(oxan-4-yl)-8-oxa-2,5,6, 12,16,17-hexaazatricyclo[11.3.1.0^3,7]heptadeca-1(16),3,6,13(17),14-pentaene]
≤ 0.1 | Cc1c2c(nn1C1CCC(N3C[C@@H]4C[C@H]3CO4)CC1)OCCC(C)Nc1nc(ncc1Cl)N2 (single isomer, unassigned) [E105]
≤ 0.1 | Cc1c2c(nn1C1CCOCC1)OC(C)CCNc1nc(ncc1Cl)N2 (single isomer, unassigned) [E114, 14-chloro-4,9-dimethyl-5-(oxan-4-yl)-8-oxa-2,5,6,12,16,17-hexaazatricyclo[11.3.1.0^3,7]heptadeca-1(16),3,6,13(17),14-pentaene]
≤ 10 | COC1CNc2nc(ncc2C(F)(F)F)Nc2c(nn(C3CCOCC3)c2C)OC1 (single isomer, unassigned) [E120, 10-methoxy-4-methyl-5-(oxan-4-yl)-14-(trifluoromethyl)-8-oxa-2,5,6,12,16,17-hexaazatricyclo[11.3.1.0^3,7] heptadeca-1(16),3,6,13(17),14-pentaene]
